Data on one sequence can be found in PMC9088798, “An Approach to Derive Functional Peptide Inhibitors of Transcription Factor Activity” (JACS Au, 2022).

The assay has as its system cJun bZIP / TRE sites in TRE-mDHFR gene. The assay can be described thus: TBS liquid culture growth competition HingeW vs A-FosW. The assay is classed as cell-based, human cJun, expressed in E. coli. The note with it: equal numbers of cells with A-FosW or HingeW, selective M9 media, after three passages, DNA sequencing. The procedure:
During the TBS library screening process, E. coli were transformed with the pooled DNA plasmid library such that each cell expressed a given member. Cells were plated onto M9 selective media and incubated until colonies expressing TBS active library members had formed. These colonies were pooled, and repeated liquid culture passages were undertaken under selective conditions to compete for library members against each other, enriching for the most TBS active sequences. At each stage of the assay, DNA sequencing was used to monitor the presence of TBS active sequences in the culture and inform on which residues were being selected at each position until one discrete DNA sequence was detected in the culture, referred to as HingeW (Figure 4). The residues selected in the winning HingeW peptide were universally found to be either acidic (D/E) or hydrophobic (V). Six of nine residues selected deviated from the parental A-FosW sequence with both V (E-to-V at e4 and c4, Q-to-V at f4) and E (L-to-E at a4, Q-to-E at e5, A-to-E at f5) newly selected in three positions. […]
increased to the optimum 4 µM in subsequent passages. […] This allows the occurrence of library members to be monitored as winner sequences are selected for. […]

For the sequence “LEQRAEELARENEELEKEAEELEQELDELQAEIEQLEERNYALRKEIEDLQKQLEKL [A-FosW, N-terminal AS and C-terminal GAP caps, 6xHis-tagged]”, the “outcome of direct competition in liquid culture” value is “outcompeted”.
